Source: article PMC4229968, “The Inhibition of the Components from Shengmai Injection towards UDP-Glucuronosyltransferase” (Evidence-based Complementary and Alternative Medicine : eCAM, 2014)

Experiments:
Format in all cases: in vitro ADME
[1] = target: T1, UGT1A1 (Homo sapiens, UniProt P22309); assay: Recombinant UGT1A1-catalyzed 4-MU glucuronidation inhibition; settings: pH 7.4, probe 4-methylumbelliferone (4-MU), UGT1A1, 100 μM of compound, 4-MU substrate, read-out: residual activity
T1 construct: purchased BD Gentest Corp. (Woburn, MA, USA); host or cells: baculovirus-infected insect cells
T1 sequence (P22309 26-533): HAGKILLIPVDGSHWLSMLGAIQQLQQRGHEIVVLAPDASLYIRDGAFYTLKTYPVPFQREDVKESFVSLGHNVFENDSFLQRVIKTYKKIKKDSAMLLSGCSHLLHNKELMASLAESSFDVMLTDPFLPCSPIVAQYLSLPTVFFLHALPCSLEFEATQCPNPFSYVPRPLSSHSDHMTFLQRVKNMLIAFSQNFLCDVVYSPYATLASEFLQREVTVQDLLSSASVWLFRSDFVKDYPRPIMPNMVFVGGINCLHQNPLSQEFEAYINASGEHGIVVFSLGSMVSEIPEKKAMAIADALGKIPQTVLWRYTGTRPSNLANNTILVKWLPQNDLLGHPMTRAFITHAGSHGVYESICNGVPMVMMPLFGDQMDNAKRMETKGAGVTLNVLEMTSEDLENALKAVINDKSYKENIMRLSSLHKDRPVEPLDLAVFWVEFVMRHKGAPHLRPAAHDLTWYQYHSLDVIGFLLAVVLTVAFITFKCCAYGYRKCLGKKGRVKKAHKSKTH
From the text: (§1) 4-Methylumbelliferone (4-MU), 4-methylumbelliferone-β-D-glucuronide (4-MUG), Tris-HCl, 7-hydroxycoumarin, and uridine-5′-diphosphoglucuronic acid (UDPGA) (trisodium salt) were purchased from Sigma-Aldrich (St. Louis, MO). Recombinant human UGT isoforms (UGT1A1, UGT1A3, UGT1A4, UGT1A6, UGT1A7, UGT1A8, UGT1A9, UGT1A10, UGT2B4, UGT2B7, and UGT2B15) expressed in baculovirus-infected insect cells were obtained from BD Gentest Corp. (Woburn, MA, USA). Ophiopogonin D (OD), ophiopogonin D′ (OD′), methylophiopogonanone A (MA), methylophiopogonanone B (MB), and ruscorectal (RU) were purchased from Sichuan Weikeqi Biotechnology Company (Chengdu, Sichuan, China). The purity of these compounds was above 95%. All other reagents were of HPLC grade or of the highest grade commercially available.
(§2) 4-MU, the nonspecific probe substrate for all the UGT isoforms except UGT1A4, was used in the present study to initially screen the inhibition potential of maidong's components towards UGT isoforms as previously reported. In brief, the incubation system (total volume = 200 μL) consisted of recombinant UGTs, 5 mM UDPGA, 5 mM MgCl2, 50 mM Tris-HCl (pH = 7.4), and 4-MU in the absence or presence of different concentrations of maidong's components. The compounds were dissolved in DMSO, and the final concentration of DMSO was below 0.5% (v/v). The used incubation time and protein concentration were previously determined to ensure the reaction rate within the linear range. The 4-MU concentration was equal to known K m or S 50 values for each UGT isoform. After 5 min preincubation at 37°C, the incubation reaction was initiated via adding UDPGA to the mixture system. The reactions were quenched by adding 100 μL acetonitrile with 7-hydroxycoumarin (100 μM) as internal standard. Centrifuged at 20000 ×g for 10 min, an aliquot of supernatant was transferred to an autoinjector vial for HPLC analysis. The HPLC system (Shimadzu, Kyoto, Japan) contained a SCL-10A system controller, two LC-10AT pumps, a SIL-10A autoinjector, and a SPD-10AVP UV detector. Chromatographic separation was carried out using a C18 column (4.6 × 200 mm, 5 μm, Kromasil) at a flow rate of 1 mL/min and UV detector at 316 nm. The mobile phase consisted of acetonitrile (A) and H2O containing 0.5% (v/v) formic acid (B). The following gradient condition was used: 0–15 min, 95–40% B; 15–20 min, 10% B; 20–30 min, 95% B.

[2] = target: T2, UGT1A3 (Homo sapiens, UniProt P35503); assay: Recombinant UGT1A3-catalyzed 4-MU glucuronidation inhibition; settings: pH 7.4, probe 4-methylumbelliferone (4-MU), UGT1A3, 100 μM of compound, 4-MU substrate, read-out: residual activity
T2 construct: purchased BD Gentest Corp. (Woburn, MA, USA); host or cells: baculovirus-infected insect cells
T2 sequence (P35503 29-534): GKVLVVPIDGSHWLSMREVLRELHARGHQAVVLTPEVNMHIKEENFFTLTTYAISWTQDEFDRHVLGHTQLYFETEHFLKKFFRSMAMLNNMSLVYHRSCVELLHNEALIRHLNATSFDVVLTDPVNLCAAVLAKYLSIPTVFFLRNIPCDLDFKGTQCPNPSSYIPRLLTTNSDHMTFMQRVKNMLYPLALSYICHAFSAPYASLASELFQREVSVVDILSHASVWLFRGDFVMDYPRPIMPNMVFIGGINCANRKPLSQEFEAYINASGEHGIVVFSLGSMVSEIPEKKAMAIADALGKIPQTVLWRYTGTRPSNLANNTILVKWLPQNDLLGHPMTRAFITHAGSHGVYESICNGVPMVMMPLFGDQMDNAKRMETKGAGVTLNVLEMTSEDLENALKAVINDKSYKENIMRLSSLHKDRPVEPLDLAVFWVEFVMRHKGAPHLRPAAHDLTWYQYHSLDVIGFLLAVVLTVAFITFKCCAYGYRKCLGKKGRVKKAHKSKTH
From the text: as §1, §2

[3] = target: T3, UGT1A9 (Homo sapiens, UniProt O60656); assay: Recombinant UGT1A9-catalyzed 4-MU glucuronidation inhibition; settings: pH 7.4, probe 4-methylumbelliferone (4-MU), UGT1A9, 100 μM of compound, 4-MU substrate, read-out: residual activity
T3 construct: purchased BD Gentest Corp. (Woburn, MA, USA); host or cells: baculovirus-infected insect cells
T3 sequence (O60656 26-530): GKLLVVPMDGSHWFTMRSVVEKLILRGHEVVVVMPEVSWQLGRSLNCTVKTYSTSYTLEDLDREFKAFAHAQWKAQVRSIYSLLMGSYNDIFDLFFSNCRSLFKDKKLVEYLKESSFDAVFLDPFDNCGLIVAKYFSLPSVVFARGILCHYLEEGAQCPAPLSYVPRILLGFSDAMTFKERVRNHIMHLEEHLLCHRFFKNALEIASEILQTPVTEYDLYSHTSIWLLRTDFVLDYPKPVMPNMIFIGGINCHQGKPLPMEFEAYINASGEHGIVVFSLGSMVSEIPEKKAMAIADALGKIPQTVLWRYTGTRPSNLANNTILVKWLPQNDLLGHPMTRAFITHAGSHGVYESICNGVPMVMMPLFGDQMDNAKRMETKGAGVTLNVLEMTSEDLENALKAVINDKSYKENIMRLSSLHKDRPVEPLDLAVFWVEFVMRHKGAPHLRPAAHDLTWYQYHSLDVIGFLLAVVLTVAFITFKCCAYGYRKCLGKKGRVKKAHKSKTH
From the text: as §1, §2

Compound `Cc1c(O)c(C)c2c(c1O)C(=O)[C@H](Cc1ccc3c(c1)OCO3)CO2` [MA, methylophiopogonanone A] has an activity at 100 µM [1] of 31.3 ± 1.3%, an activity at 100 µM [2] of 35.5 ± 6.1% and an activity at 100 µM [3] of 38.7%.
In the case of `COc1ccc(C[C@@H]2COc3c(C)c(O)c(C)c(O)c3C2=O)cc1` [MB, methylophiopogonanone B], the activity at 100 µM [1] is reported as 27.9 ± 11.1%, the activity at 100 µM [2] is reported as 84.2 ± 22.8% and the activity at 100 µM [3] is reported as 68.2 ± 1.5%.
In the case of `C[C@@H]1CC[C@@]2(OC1)O[C@H]1C[C@H]3[C@@H]4CC=C5C[C@@H](O)C[C@@H](O[C@@H]6O[C@H](C)[C@H](O)[C@H](O[C@@H]7OC[C@@H](O)[C@H](O)[C@H]7O)[C@H]6O[C@@H]6O[C@@H](C)[C@H](O)[C@@H](O)[C@H]6O)[C@]5(C)[C@H]4CC[C@]3(C)[C@H]1[C@@H]2C` [OD, ophiopogonin D], the activity at 100 µM [1] is reported as 77.1 ± 3.8%, the activity at 100 µM [2] is reported as 40.7 ± 0.3% and the activity at 100 µM [3] is reported as 135 ± 1.5%.
For `C[C@@H]1CC[C@@]2(OC1)O[C@H]1C[C@H]3[C@@H]4CC=C5C[C@@H](O[C@@H]6O[C@H](CO)[C@@H](O)[C@H](O[C@@H]7OC[C@@H](O)[C@H](O)[C@H]7O)[C@H]6O[C@@H]6O[C@@H](C)[C@H](O)[C@@H](O)[C@H]6O)CC[C@]5(C)[C@H]4CC[C@]3(C)[C@H]1[C@@H]2C` [OD′, ophiopogonin D′], the activity at 100 µM [1] was 81 ± 12.6%, the activity at 100 µM [2] was 36.5 ± 2.5% and the activity at 100 µM [3] was 134 ± 2.1%.
Compound `CC1CCC2(OC1)OC1CC3C4CC=C5CC(O)CC(O)C5(C)C4CCC3(C)C1C2C` (stereo not drawn) [RU, ruscorectal] has an activity at 100 µM [1] of 41.5 ± 36.9%, an activity at 100 µM [2] of 37.2 ± 18.2% and an activity at 100 µM [3] of 110.7 ± 1.1%.
